Source: PubChem BioAssay (NCI)
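A five-concentration, 48-hour dose response in 96-well plates underlies each endpoint, interpolated linearly between surrounding concentrations. The concentration for full growth arrest is given as TGI.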

Experiments:
Assay in all cases: DTP human tumour cell line panel, 48 h
OVCAR-8 ovarian = tested on: OVCAR-8 ovarian
SNB-19 CNS = tested on: SNB-19 CNS
OVCAR-4 ovarian = tested on: OVCAR-4 ovarian
IGROV1 ovarian = tested on: IGROV1 ovarian
SF-539 CNS = tested on: SF-539 CNS
SK-MEL-2 melanoma = tested on: SK-MEL-2 melanoma
RXF 393 renal = tested on: RXF 393 renal
T-47D breast = tested on: T-47D breast
UACC-62 melanoma = tested on: UACC-62 melanoma
786-0 renal = tested on: 786-0 renal
NCI-H226 lung = tested on: NCI-H226 lung
A498 renal = tested on: A498 renal
SW-620 colon = tested on: SW-620 colon
HOP-92 NSCLC = tested on: HOP-92 NSCLC
HCT-116 colon = tested on: HCT-116 colon
KM12 colon = tested on: KM12 colon
MDA-MB-435 = tested on: MDA-MB-435
MOLT-4 leukemia = tested on: MOLT-4 leukemia
UACC-257 melanoma = tested on: UACC-257 melanoma
SNB-75 CNS = tested on: SNB-75 CNS
MDA-N = tested on: MDA-N
HCT-15 colon = tested on: HCT-15 colon
OVCAR-5 ovarian = tested on: OVCAR-5 ovarian
MALME-3M melanoma = tested on: MALME-3M melanoma
NCI-H460 lung = tested on: NCI-H460 lung
ACHN renal = tested on: ACHN renal
NCI-H522 lung = tested on: NCI-H522 lung
M14 melanoma = tested on: M14 melanoma
NCI/ADR-RES ovarian = tested on: NCI/ADR-RES ovarian
SF-295 CNS = tested on: SF-295 CNS
HS 578T breast = tested on: HS 578T breast
MDA-MB-231 breast = tested on: MDA-MB-231 breast
SF-268 CNS = tested on: SF-268 CNS
HCC-2998 colon = tested on: HCC-2998 colon
HL-60(TB) leukemia = tested on: HL-60(TB) leukemia
CCRF-CEM leukemia = tested on: CCRF-CEM leukemia
SK-MEL-5 melanoma = tested on: SK-MEL-5 melanoma
NCI-H23 lung = tested on: NCI-H23 lung
EKVX NSCLC = tested on: EKVX NSCLC
SR leukemia = tested on: SR leukemia
DU-145 prostate = tested on: DU-145 prostate
RPMI-8226 leukemia = tested on: RPMI-8226 leukemia
SK-MEL-28 melanoma = tested on: SK-MEL-28 melanoma
A549 NSCLC = tested on: A549 NSCLC
SN12C renal = tested on: SN12C renal
HOP-62 NSCLC = tested on: HOP-62 NSCLC
PC-3 prostate = tested on: PC-3 prostate
HT29 colon = tested on: HT29 colon
K-562 leukemia = tested on: K-562 leukemia
TK-10 renal = tested on: TK-10 renal
LOX IMVI melanoma = tested on: LOX IMVI melanoma
OVCAR-3 ovarian = tested on: OVCAR-3 ovarian
MCF7 breast = tested on: MCF7 breast
U251 CNS = tested on: U251 CNS
COLO 205 colon = tested on: COLO 205 colon
CAKI-1 renal = tested on: CAKI-1 renal
SK-OV-3 ovarian = tested on: SK-OV-3 ovarian

## CNc1ccc(C(=O)CC(O)CCC(C)C2OC(=O)CC(O)CC(=O)CC(O)CC(O)CC(O)CC(O)CC3(O)CC(O)C(C(=O)NCCN4CCOCC4)C(CC(OC4OC(C)C(O)C(N)C4O)/C=C/C=C/C=C/C=C\C=C/C=C/C=C/C2C)O3)cc1 (stereo unspecified)
OVCAR-8 ovarian
  TGI: 36.8 µM
SNB-19 CNS
  TGI: > 100 µM
OVCAR-4 ovarian
  TGI: > 100 µM
IGROV1 ovarian
  TGI: > 100 µM
SF-539 CNS
  TGI: > 100 µM
SK-MEL-2 melanoma
  TGI: 79.1 µM
RXF 393 renal
  TGI: > 100 µM
T-47D breast
  TGI: > 100 µM
UACC-62 melanoma
  TGI: > 100 µM
786-0 renal
  TGI: > 100 µM
NCI-H226 lung
  TGI: > 100 µM
A498 renal
  TGI: 0.8 µM
SW-620 colon
  TGI: > 100 µM
HOP-92 NSCLC
  TGI: > 100 µM
HCT-116 colon
  TGI: > 100 µM
KM12 colon
  TGI: > 100 µM
MDA-MB-435
  TGI: > 100 µM
MOLT-4 leukemia
  TGI: > 100 µM
UACC-257 melanoma
  TGI: 1.94 µM
SNB-75 CNS
  TGI: > 100 µM
MDA-N
  TGI: > 100 µM

## CNC1(C(=O)O)CC1
HCT-15 colon
  TGI: > 100 µM
OVCAR-5 ovarian
  TGI: > 100 µM
OVCAR-8 ovarian
  TGI: > 100 µM
MALME-3M melanoma
  TGI: > 100 µM
SNB-19 CNS
  TGI: > 100 µM
OVCAR-4 ovarian
  TGI: > 100 µM
NCI-H460 lung
  TGI: > 100 µM
ACHN renal
  TGI: > 100 µM
NCI-H522 lung
  TGI: > 100 µM
M14 melanoma
  TGI: > 100 µM
NCI/ADR-RES ovarian
  TGI: > 100 µM
SF-295 CNS
  TGI: > 100 µM
IGROV1 ovarian
  TGI: > 100 µM
HS 578T breast
  TGI: > 100 µM
SF-539 CNS
  TGI: > 100 µM
MDA-MB-231 breast
  TGI: > 100 µM
SF-268 CNS
  TGI: > 100 µM
HCC-2998 colon
  TGI: > 100 µM
HL-60(TB) leukemia
  TGI: > 100 µM
CCRF-CEM leukemia
  TGI: > 100 µM
SK-MEL-5 melanoma
  TGI: > 100 µM
RXF 393 renal
  TGI: > 100 µM
T-47D breast
  TGI: > 100 µM
UACC-62 melanoma
  TGI: > 100 µM
NCI-H23 lung
  TGI: > 100 µM
786-0 renal
  TGI: > 100 µM
NCI-H226 lung
  TGI: > 100 µM
EKVX NSCLC
  TGI: > 100 µM
A498 renal
  TGI: > 100 µM
SR leukemia
  TGI: > 100 µM
DU-145 prostate
  TGI: > 100 µM
RPMI-8226 leukemia
  TGI: > 100 µM
SW-620 colon
  TGI: > 100 µM
SK-MEL-28 melanoma
  TGI: > 100 µM
HOP-92 NSCLC
  TGI: > 100 µM
HCT-116 colon
  TGI: > 100 µM
A549 NSCLC
  TGI: > 100 µM
KM12 colon
  TGI: > 100 µM
SN12C renal
  TGI: > 100 µM
MDA-MB-435
  TGI: > 100 µM
MOLT-4 leukemia
  TGI: > 100 µM
UACC-257 melanoma
  TGI: > 100 µM
HOP-62 NSCLC
  TGI: > 100 µM
PC-3 prostate
  TGI: > 100 µM
HT29 colon
  TGI: > 100 µM
K-562 leukemia
  TGI: > 100 µM
TK-10 renal
  TGI: > 100 µM
LOX IMVI melanoma
  TGI: > 100 µM
OVCAR-3 ovarian
  TGI: > 100 µM
MCF7 breast
  TGI: > 100 µM
U251 CNS
  TGI: > 100 µM
MDA-N
  TGI: > 100 µM

## C#CC1(O)CCCCCCCCC2(CCCCCCCC1)OCCO2
HCT-15 colon
  TGI: 39.1 µM
OVCAR-5 ovarian
  TGI: 37.8 µM
COLO 205 colon
  TGI: 33.2 µM
OVCAR-8 ovarian
  TGI: 34.4 µM
MALME-3M melanoma
  TGI: 34.3 µM
SNB-19 CNS
  TGI: 33 µM
OVCAR-4 ovarian
  TGI: 19.5 µM
NCI-H460 lung
  TGI: 44.2 µM
ACHN renal
  TGI: 27.3 µM
NCI-H522 lung
  TGI: 6.42 µM
M14 melanoma
  TGI: 33.9 µM
NCI/ADR-RES ovarian
  TGI: 34.7 µM
SF-295 CNS
  TGI: 34.7 µM
IGROV1 ovarian
  TGI: 30.3 µM
HS 578T breast
  TGI: 38.9 µM
SF-539 CNS
  TGI: 31.8 µM
CAKI-1 renal
  TGI: 24.7 µM
SK-MEL-2 melanoma
  TGI: 27.9 µM
SF-268 CNS
  TGI: 34.2 µM
HCC-2998 colon
  TGI: 29.5 µM
HL-60(TB) leukemia
  TGI: 40.9 µM
SK-MEL-5 melanoma
  TGI: 33.4 µM
RXF 393 renal
  TGI: 24.5 µM
T-47D breast
  TGI: 33.8 µM
UACC-62 melanoma
  TGI: 28.6 µM
NCI-H23 lung
  TGI: 33.9 µM
786-0 renal
  TGI: 31.4 µM
NCI-H226 lung
  TGI: 34 µM
EKVX NSCLC
  TGI: 32.6 µM
A498 renal
  TGI: 27.8 µM
SR leukemia
  TGI: 34.3 µM
DU-145 prostate
  TGI: 31.1 µM
RPMI-8226 leukemia
  TGI: 22 µM
SW-620 colon
  TGI: 34.7 µM
SK-MEL-28 melanoma
  TGI: 35.1 µM
HOP-92 NSCLC
  TGI: 33.3 µM
HCT-116 colon
  TGI: 30.4 µM
A549 NSCLC
  TGI: 26.8 µM
KM12 colon
  TGI: 34.6 µM
SN12C renal
  TGI: 31.5 µM
MDA-MB-435
  TGI: 33.5 µM
UACC-257 melanoma
  TGI: 39.2 µM
HOP-62 NSCLC
  TGI: 44.5 µM
SK-OV-3 ovarian
  TGI: 33.2 µM
PC-3 prostate
  TGI: 25.9 µM
HT29 colon
  TGI: 35.4 µM
K-562 leukemia
  TGI: 43.6 µM
TK-10 renal
  TGI: 37 µM
LOX IMVI melanoma
  TGI: 38.1 µM
OVCAR-3 ovarian
  TGI: 29.3 µM
MCF7 breast
  TGI: 36.3 µM
U251 CNS
  TGI: 30.8 µM
MDA-N
  TGI: 35.9 µM
